From US20260234157A1, “COMPOUND AND METHOD FOR TARGETED DEGRADATION OF ANDROGEN RECEPTOR” (Gan & Lee Pharmaceuticals Co., Ltd., priority 2023, published 2026) come the findings set out here.

Positions count from the first letter of the chain named. Read-outs that look alike come from different tables or passages of the source.

Holding throughout (format): cell-based
The test system of one experiment is LNCaP FGC cells. Put plainly: Inhibition of proliferation of LNCaP cells (WST-8). On the procedure: The cells were cultured in a cell culture incubator with 5% CO2 at 37° C. overnight. […] On the sixth day, 96 well plates were taken out, and 20 μL of WST-8 (Beytime, C0040) reagent was added to each well.
(Formazan colour is commonly taken as a measure of viable cells.)

For experiment [1], the target named is T1, AR protein (Homo sapiens, UniProt P10275).
T1 construct: degradation activity of the compounds disclosed in the present disclosure on AR protein in VCaP cells; host or cells: VCaP
T1 sequence (P10275 1-920): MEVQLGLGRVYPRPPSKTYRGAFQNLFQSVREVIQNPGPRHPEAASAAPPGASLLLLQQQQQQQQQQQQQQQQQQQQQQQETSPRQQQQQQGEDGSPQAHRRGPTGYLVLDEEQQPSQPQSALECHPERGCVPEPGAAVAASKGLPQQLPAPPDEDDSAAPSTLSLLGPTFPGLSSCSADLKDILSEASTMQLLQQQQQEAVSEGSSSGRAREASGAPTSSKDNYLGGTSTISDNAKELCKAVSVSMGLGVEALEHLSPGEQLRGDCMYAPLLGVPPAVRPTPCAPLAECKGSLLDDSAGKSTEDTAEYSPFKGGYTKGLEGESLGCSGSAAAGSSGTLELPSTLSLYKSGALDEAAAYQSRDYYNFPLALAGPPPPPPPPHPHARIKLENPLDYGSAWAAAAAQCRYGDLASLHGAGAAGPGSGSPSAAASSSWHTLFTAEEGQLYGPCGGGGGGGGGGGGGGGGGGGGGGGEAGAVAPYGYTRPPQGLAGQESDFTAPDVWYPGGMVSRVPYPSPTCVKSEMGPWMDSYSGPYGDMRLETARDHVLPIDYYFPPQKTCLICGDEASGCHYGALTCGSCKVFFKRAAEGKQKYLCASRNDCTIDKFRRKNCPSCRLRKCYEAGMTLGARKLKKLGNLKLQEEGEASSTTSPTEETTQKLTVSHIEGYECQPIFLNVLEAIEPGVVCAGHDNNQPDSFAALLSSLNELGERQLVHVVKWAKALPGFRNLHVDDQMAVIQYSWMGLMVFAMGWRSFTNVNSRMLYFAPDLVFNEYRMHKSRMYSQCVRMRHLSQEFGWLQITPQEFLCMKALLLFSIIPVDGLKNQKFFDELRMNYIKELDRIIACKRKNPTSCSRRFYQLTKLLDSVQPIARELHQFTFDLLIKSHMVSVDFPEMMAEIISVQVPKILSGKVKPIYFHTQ
As to the kind of experiment: Degradation of AR protein in VCaP cells (Western blot). As to conditions: 8 hours; for inhibition at 0.01 µM: compound at 10 nM, read-out: Degradation rate of the AR protein in VCaP cells, 10 nM (%); for inhibition at 0.1 µM: compound at 100 nM, read-out: Degradation rate of the AR protein in VCaP cells, 100 nM (%). The method, then: The degradation activity of the compounds disclosed in the present disclosure on AR protein in VCaP cells (cell source: ATCC)
(§1) Corresponding solvent controls were also set and cultured for 8 hours. After 8 hours of cultivation, the culture medium was removed and the cells were washed with PBS. RIPA lysis buffer containing 1% Protease Inhibitor Cocktail was added, and the total protein extract was obtained by lysis and centrifugation. The protein concentration in the extract was detected by BCA method. Protein electrophoresis was performed using SDS-PAGE, followed by transfer of the protein onto a PVDF (Millipore Sigma catalog No. PSRP010R5) membrane at 100V constant voltage for 60 minutes. The PVDF membrane was then placed in a 1×TBST solution with 5% milk and blocked at room temperature for 1 hour. […] The primary antibody solution was discarded and the PVDF membrane was washed three times with 1×TBST for 5 minutes/time. […] The secondary antibody solution was discarded and the PVDF membrane was washed three times with 1×TBST for 5 minutes/time. Western blot imaging was performed by using a dual color infrared laser imaging system (Licor catalog No. Odyssey CLX). Bands were analyzed in grayscale using Image Studio software. For each sample, GAPDH protein bands were detected as internal reference. The degradation rates of the AR protein for the compounds and the positive control sample were calculated based on grayscale of the protein bands.

The target in experiment [2] is T2, AR protein (Homo sapiens, UniProt P10275, T878A).
T2 construct: degradation activity of the compounds disclosed in the present disclosure on AR protein in LNCaP cells; host or cells: LNCaP FGC
T2 sequence (P10275 1-920 T878A): T1 sequence (P10275 1-920) with T878A
Put plainly: Degradation of AR protein in LNCaP cells (Western blot). As to conditions: for inhibition at 0.01 µM: read-out: Degradation rates of the AR protein in LNCaP cells, 10 nM (%); for inhibition at 0.1 µM: read-out: Degradation rates of the AR protein in LNCaP cells, 100 nM (%). The method, then: The degradation activity of the compounds disclosed in the present disclosure on AR protein in LNCaP cells (cell source: ATCC)
as §1

Where [3] appears, read: Homo sapiens, LNCaP, 96 h, LNCaP FGC cells, 96 hours, WST-8 absorbance at 450 nm, read-out: IC50 for inhibiting the proliferation of LNCaP cells.
The mark [4] stands for this setting: LNCaP FGC cells, 96 hours, WST-8 absorbance at 450 nm, read-out: IC50 for inhibiting the proliferation of LNCaP cells.
[5] abbreviates: Homo sapiens, LNCaP, 96 h, read-out: IC50 for inhibiting the proliferation of LNCaP cells, LNCaP FGC cells, 96 hours, WST-8 absorbance at 450 nm.
The mark [6] stands for this setting: LNCaP cells, compound 10 nM, 8 hours, Western blot grayscale, GAPDH internal reference.
Setting [7] is: LNCaP cells, compound 100 nM, 8 hours, Western blot grayscale, GAPDH internal reference.

On to `CC1(C)C(=O)N(c2ccc(C#N)c(C(F)(F)F)c2)C(=S)N1c1ccc(C(=O)N2CCC3(CCC(N4CCC5(CCc6cc7c(cc6O5)C(=O)N(C5CCC(=O)NC5=O)C7=O)CC4)CC3)C2)c(F)c1` (centres unmarked) [Compound 129], for which the IC50 in the experiment on LNCaP FGC cells (setting [3]) came out at 3.63 µM.

Consider `N#Cc1ccc(O[C@H]2CC[C@H](NC(=O)c3ccc(N4CCC(F)(CN5CCC6(CCc7ccc8c(c7O6)CN(C6CCC(=O)NC6=O)C8=O)CC5)CC4)nn3)CC2)cc1Cl` (some centres unmarked) [Compound 132], for which, in the experiment with LNCaP FGC cells (setting [4]), the IC50 is 4.35 µM.

On to `CC1(C)C(=O)N(c2ccc(C#N)c(C(F)(F)F)c2)C(=S)N1c1ccc(C(=O)N2CCC(CN3CCC4(CC3)COc3cc5c(cc3O4)CN(C3CCC(=O)NC3=O)C5=O)CC2)c(F)c1` (centres unmarked) [Compound 111], for which the IC50 in the experiment with LNCaP FGC cells (setting [5]) was found to be 5.72 µM.

In the case of `CC1(CN2CCC3(CC2)COc2c(ccc4c2C(=O)N(C2CCC(=O)NC2=O)C4)C3)CCN(c2ccc(C(=O)NC3CCC(Oc4ccc(C#N)c(Cl)c4)CC3)nn2)CC1` (centres unmarked) [Compound 187], the IC50 in the experiment on LNCaP FGC cells (setting [3]) was found to be 0.39 µM.

For `CC1(CN2CCC3(CCc4cc5c(cc4O3)C(=O)N(C3CCC(=O)NC3=O)C5=O)CC2)CCN(C(=O)c2ccc(N3C(=S)N(c4ccc(C#N)c(C(F)(F)F)c4)C(=O)C3(C)C)cc2F)CC1` (centres unmarked) [Compound 108], the IC50 in the experiment with LNCaP FGC cells (setting [5]) worked out at 10.4 µM.

As for `CC1(CN2CC3(CCc4cc5c(cc4O3)CN(C3CCC(=O)NC3=O)C5=O)C2)CCN(c2ccc(C(=O)N[C@H]3CC[C@H](Oc4ccc(C#N)c(Cl)c4)CC3)nn2)CC1` (some centres unmarked) [Compound 12], the IC50 with LNCaP FGC cells (setting [4]) is 0.73 µM.

As for `CC1(CN2CCC3(CCc4ccc5c(c4O3)CN(C3CCC(=O)NC3=O)C5=O)CC2)CCN(c2ccc(C(=O)N[C@H]3CC[C@H](Oc4ccc(C#N)c(Cl)c4)CC3)nn2)CC1` (some centres unmarked) [Compound 151], the IC50 in the experiment with LNCaP FGC cells (setting [3]) came to 72.7 µM.

With `COC1(CN2CCC3(CCc4ccc5c(c4O3)CN(C3CCC(=O)NC3=O)C5=O)CC2)CCN(c2ccc(C(=O)N[C@H]3CC[C@H](Oc4ccc(C#N)c(Cl)c4)CC3)nn2)CC1` (some centres unmarked) [Compound 133], the IC50 in the experiment with LNCaP FGC cells (setting [4]) amounted to 23.7 µM.

For the compound `CC1(C)C(=O)N(c2ccc(C#N)c(C(F)(F)F)c2)C(=S)N1c1ccc(C(=O)N2CC[C@@H](CN3CCC4(CCc5cc6c(cc5O4)C(=O)N(C4CCC(=O)NC4=O)C6=O)CC3)C2)c(F)c1` (some centres unmarked) [Compound 127], the IC50 in the experiment on LNCaP FGC cells (setting [3]) came out at 6.28 µM.

Regarding `CC1(C)C(=O)N(c2ccc(C#N)c(C(F)(F)F)c2)C(=S)N1c1ccc(C(=O)N2CC[C@@H](CN3CCC4(CC3)COc3cc5c(cc3C4)C(=O)N(C3CCC(=O)NC3=O)C5=O)C2)c(F)c1` (some centres unmarked) [Compound 126], the IC50 in the experiment with LNCaP FGC cells (read-out: IC50 for inhibiting the proliferation of LNCaP cells, LNCaP FGC cells, 96 hours, WST-8 absorbance at 450 nm) was determined as 4.06 µM.

Consider `N#Cc1ccc(O[C@H]2CC[C@H](NC(=O)c3ccc(N4CCC(CN5CC6(CCc7cc8c(cc7O6)C(=O)N(C6CCC(=O)NC6=O)C8=O)C5)CC4)nn3)CC2)cc1Cl` (some centres unmarked) [Compound 1], for which the inhibition at 0.01 µM on AR protein [1] worked out at 65%; at AR protein [2] (setting [6]) it was 44%. Also, the inhibition at 0.1 µM on AR protein [1] stood at 79%; at AR protein [2] (setting [7]) it was 82%.

For `N#Cc1ccc(O[C@H]2CC[C@H](NC(=O)c3ccc(N4CCC5(CCC(N6CCC7(CC6)COc6c7ccc7c6CN(C6CCC(=O)NC6=O)C7=O)CC5)CC4)nn3)CC2)cc1Cl` (some centres unmarked) [Compound 137], the results for the inhibition at 0.01 µM at AR protein [1] and on AR protein [2] (setting [6]) were 80% and 68%, respectively. Also, the values for the inhibition at 0.1 µM on AR protein [1] and at AR protein [2] (setting [7]) were 90% and 21%, respectively.

For `N#Cc1ccc(O[C@H]2CC[C@H](NC(=O)c3cnc(N4CCC(F)(CN5CCC6(CC5)COc5c6ccc6c5CN(C5CCC(=O)NC5=O)C6=O)CC4)cn3)CC2)cc1Cl` (some centres unmarked) [Compound 157], the inhibition at 0.01 µM worked out at 46% at AR protein [1] and 51% at AR protein [2] (setting [6]). For the same compound, the inhibition at 0.1 µM on AR protein [1] is 84%; at AR protein [2] (setting [7]) it was 52%.

As to `N#Cc1ccc(O[C@H]2CC[C@H](NC(=O)c3ccc(N4CC(N5CCC6(CC5)COc5c6ccc6c5CN(C5CCC(=O)NC5=O)C6=O)C4)nn3)CC2)cc1Cl` (some centres unmarked) [Compound 183], on AR protein [1], the inhibition at 0.01 µM came out at 75% and the inhibition at 0.1 µM stood at 84%. In addition, on AR protein [2] (LNCaP, 8 h), the inhibition at 0.01 µM worked out at 40% and the inhibition at 0.1 µM amounted to 51%.

Consider `N#Cc1ccc(O[C@H]2CC[C@H](NC(=O)c3ccc(N4CCC(CN5CCC6(CC5)COc5cc7c(cc5O6)CN(C5CCC(=O)NC5=O)C7=O)CC4)nn3)CC2)cc1Cl` (some centres unmarked) [Compound 76], for which the inhibition at 0.01 µM came out at 84% on AR protein [1] and 74% at AR protein [2] (setting [6]). Moreover, the values for the inhibition at 0.1 µM at AR protein [1] and at AR protein [2] (setting [7]) were 76% and 74%, respectively.

As for `N#Cc1ccc(O[C@H]2CC[C@H](NC(=O)c3cnc(N4CCC(F)(CN5CCC6(CC5)COc5c6ccc6c5CN(C5CCC(=O)NC5=O)C6=O)CC4)nc3)CC2)cc1Cl` (some centres unmarked) [Compound 158], the inhibition at 0.01 µM on AR protein [1] amounted to 62%; at AR protein [2] (setting [6]) it was 43%. The inhibition at 0.1 µM at AR protein [1] stood at 81%; on AR protein [2] (setting [7]), 37%.

For `N#Cc1ccc(O[C@H]2CC[C@H](NC(=O)c3ccc(N4CCC(N5CC(N6CCC7(CC6)COc6c7ccc7c6CN(C6CCC(=O)NC6=O)C7=O)C5)CC4)nn3)CC2)cc1Cl` (some centres unmarked) [Compound 144], the inhibition at 0.01 µM on AR protein [1] amounted to 82%; on AR protein [2] (setting [6]), 68%. In addition, the inhibition at 0.1 µM came to 86% on AR protein [1] and 39% at AR protein [2] (setting [7]).
